The supplement of paper PMC10307832

Compound: N#CC1(c2ccc(NC(=O)c3cccnc3NCc3ccncc3)cc2)CCCC1 [Apatinib] + COc1cccc2cc(-c3nc([C@H]4CC[C@H](C(=O)O)CC4)n4ncnc(N)c34)[nH]c12 [OSI-027] (partner 0.5 µM)
Assay: relative viability (nuclei count vs DMSO), 5 days (fraction); higher = more cells survive
Conditions: first compound 0.08 µM
Outline: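 Cells from lung cancer lines were seeded into 1536-well plates and, one day later, dosed by pin tool. Treatments were either a single drug or a fixed dose of an anchor drug with five library-drug doses (not always all listed) in √10 steps. After 5 days, nuclei were stained in a one-step fixation (final 0.05% Triton X-100, 1% formaldehyde, 1 ug/ml Hoechst) and counted on 4× images, and relative viability is the treated-to-vehicle nuclei ratio, as the median of duplicate plates.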

Going from EMC-BAC-2 to EPLC-272H, the relative viability falls from 0.413 to 0.308.

First: H3255
Second: HARA
The relative viability of the first is lower: 0.551 for the first, 0.782 for the second.

Compared with HCC-15, HCC-44 is lower in relative viability: 0.719 for the first, 0.457 for the second.

First: HCC-78
Second: HCC-366
The relative viability of the first is lower: 0.355 for the first, 1.06 for the second.

First: HCC-827
Second: HOP-62
The relative viability of the first is lower: 0.856 for the first, 0.917 for the second.

First: LC-2-ad
Second: LCLC-97TM1
The relative viability of the first is higher: 0.752 for the first, 0.516 for the second.

Compared with LCLC-103H, LK-2 is lower in relative viability: 0.495 for the first, 0.217 for the second.

Compared with LOU-NH91, NCI-H441 is lower in relative viability: 0.636 for the first, 0.609 for the second.

First: NCI-H522
Second: NCI-H1395
The relative viability of the first is higher: 0.731 for the first, 0.614 for the second.

First: NCI-H1623
Second: NCI-H1648
The relative viability of the first is higher: 0.443 for the first, 0.272 for the second.

First: NCI-H1793
Second: NCI-H2170
The relative viability of the first is lower: 0.282 for the first, 0.803 for the second.

Going from NCI-H2342 to SW 900, the relative viability falls from 0.579 to 0.563.

Same assay, conditions: first compound 0.253 µM

Compared with 201T, A-427 is lower in relative viability: 0.763 for the first, 0.465 for the second.

Compared with ABC-1, BEN is lower in relative viability: 0.543 for the first, 0.277 for the second.

Going from CAL-12T to COR-L23, the relative viability rises from 0.589 to 0.792.

Compared with COR-L 105, ChaGo-K-1 is lower in relative viability: 0.806 for the first, 0.616 for the second.

First: EKVX
Second: EMC-BAC-2
The relative viability of the first is higher: 0.688 for the first, 0.389 for the second.

First: H3255
Second: HARA
The relative viability of the first is higher: 0.569 for the first, 0.359 for the second.

Going from HCC-15 to HCC-44, the relative viability falls from 0.691 to 0.524.

Compared with HCC-78, HCC-366 is higher in relative viability: 0.298 for the first, 0.88 for the second.

First: HCC-827
Second: HOP-62
The relative viability of the first is lower: 0.742 for the first, 0.874 for the second.

Compared with LC-2-ad, LCLC-97TM1 is lower in relative viability: 0.761 for the first, 0.427 for the second.

First: LCLC-103H
Second: LK-2
The relative viability of the first is higher: 0.477 for the first, 0.197 for the second.

First: LOU-NH91
Second: NCI-H441
The relative viability of the first is higher: 0.667 for the first, 0.625 for the second.

Compared with NCI-H522, NCI-H1395 is lower in relative viability: 0.752 for the first, 0.701 for the second.

First: NCI-H1623
Second: NCI-H1648
The relative viability of the first is higher: 0.423 for the first, 0.253 for the second.

First: NCI-H1650
Second: NCI-H1793
The relative viability of the first is higher: 0.776 for the first, 0.25 for the second.

Compared with NCI-H2170, NCI-H2342 is lower in relative viability: 0.752 for the first, 0.573 for the second.

SW 900 showed a relative viability of 0.605.

Same assay, conditions: first compound 0.8 µM

First: 201T
Second: A-427
The relative viability of the first is higher: 0.718 for the first, 0.479 for the second.

First: ABC-1
Second: BEN
The relative viability of the first is higher: 0.453 for the first, 0.3 for the second.

First: CAL-12T
Second: COR-L23
The relative viability of the first is lower: 0.52 for the first, 0.673 for the second.

Compared with COR-L 105, ChaGo-K-1 is lower in relative viability: 0.619 for the first, 0.491 for the second.

First: EKVX
Second: EMC-BAC-2
The relative viability of the first is higher: 0.654 for the first, 0.357 for the second.

First: EPLC-272H
Second: H3255
The relative viability of the first is lower: 0.268 for the first, 0.539 for the second.

First: HARA
Second: HCC-15
The relative viability of the first is lower: 0.482 for the first, 0.658 for the second.

Compared with HCC-44, HCC-78 is lower in relative viability: 0.395 for the first, 0.384 for the second.

Going from HCC-366 to HCC-827, the relative viability falls from 0.815 to 0.575.

First: HOP-62
Second: LC-2-ad
The relative viability of the first is lower: 0.799 for the first, 0.828 for the second.

First: LCLC-97TM1
Second: LCLC-103H
The relative viability of the first is higher: 0.456 for the first, 0.384 for the second.

Going from LK-2 to LOU-NH91, the relative viability rises from 0.157 to 0.599.

First: NCI-H441
Second: NCI-H522
The relative viability of the first is lower: 0.541 for the first, 0.703 for the second.

Going from NCI-H1395 to NCI-H1623, the relative viability falls from 0.662 to 0.404.

Compared with NCI-H1648, NCI-H1650 is higher in relative viability: 0.265 for the first, 0.456 for the second.

First: NCI-H1793
Second: NCI-H2170
The relative viability of the first is lower: 0.268 for the first, 0.692 for the second.

Compared with NCI-H2342, SW 900 is lower in relative viability: 0.626 for the first, 0.497 for the second.

Same assay, conditions: first compound 2.53 µM

First: 201T
Second: A-427
The relative viability of the first is higher: 0.723 for the first, 0.476 for the second.

First: ABC-1
Second: BEN
The relative viability of the first is higher: 0.499 for the first, 0.299 for the second.

Going from CAL-12T to COR-L23, the relative viability rises from 0.366 to 0.669.

Compared with COR-L 105, ChaGo-K-1 is lower in relative viability: 0.582 for the first, 0.455 for the second.

First: EKVX
Second: EMC-BAC-2
The relative viability of the first is higher: 0.639 for the first, 0.338 for the second.

Compared with EPLC-272H, H3255 is higher in relative viability: 0.246 for the first, 0.51 for the second.

Compared with HARA, HCC-15 is higher in relative viability: 0.448 for the first, 0.628 for the second.

First: HCC-44
Second: HCC-78
The relative viability of the first is higher: 0.446 for the first, 0.34 for the second.

Compared with HCC-366, HCC-827 is lower in relative viability: 0.744 for the first, 0.719 for the second.

Going from HOP-62 to LC-2-ad, the relative viability rises from 0.714 to 0.813.

Going from LCLC-97TM1 to LCLC-103H, the relative viability rises from 0.395 to 0.401.

First: LK-2
Second: LOU-NH91
The relative viability of the first is lower: 0.205 for the first, 0.619 for the second.

Going from NCI-H441 to NCI-H522, the relative viability rises from 0.436 to 0.72.

First: NCI-H1395
Second: NCI-H1623
The relative viability of the first is higher: 0.693 for the first, 0.351 for the second.

Compared with NCI-H1648, NCI-H1650 is higher in relative viability: 0.267 for the first, 0.463 for the second.

Compared with NCI-H1793, NCI-H2170 is higher in relative viability: 0.222 for the first, 0.594 for the second.

Going from NCI-H2342 to SW 900, the relative viability rises from 0.529 to 0.545.

Same assay, conditions: first compound 8 µM

First: 201T
Second: A-427
The relative viability of the first is higher: 0.751 for the first, 0.404 for the second.

Compared with ABC-1, BEN is lower in relative viability: 0.336 for the first, 0.317 for the second.

Going from CAL-12T to COR-L23, the relative viability rises from 0.272 to 0.6.

Compared with COR-L 105, ChaGo-K-1 is higher in relative viability: 0.491 for the first, 0.493 for the second.

Compared with EKVX, EMC-BAC-2 is lower in relative viability: 0.558 for the first, 0.291 for the second.

Compared with EPLC-272H, H3255 is higher in relative viability: 0.247 for the first, 0.535 for the second.

Going from HARA to HCC-15, the relative viability rises from 0.303 to 0.509.

Compared with HCC-44, HCC-78 is lower in relative viability: 0.522 for the first, 0.332 for the second.

Going from HCC-366 to HCC-827, the relative viability rises from 0.494 to 0.642.

Compared with HOP-62, LC-2-ad is higher in relative viability: 0.605 for the first, 0.68 for the second.

Going from LCLC-97TM1 to LCLC-103H, the relative viability rises from 0.329 to 0.457.

Going from LK-2 to LOU-NH91, the relative viability rises from 0.167 to 0.676.

Going from NCI-H441 to NCI-H522, the relative viability rises from 0.339 to 0.691.

Going from NCI-H1395 to NCI-H1623, the relative viability falls from 0.639 to 0.385.

First: NCI-H1648
Second: NCI-H1650
The relative viability of the first is lower: 0.261 for the first, 0.541 for the second.

Going from NCI-H1793 to NCI-H2170, the relative viability rises from 0.175 to 0.674.

Compared with NCI-H2342, SW 900 is lower in relative viability: 0.518 for the first, 0.412 for the second.
